According to paper PMC10046961, “High-Throughput Screening Assay for Detecting Drug-Induced Changes in Synchronized Neuronal Oscillations and Potential Seizure Risk Based on Ca^2+ Fluorescence Measurements in Human Induced Pluripotent Stem Cell (hiPSC)-Derived Neuronal 2D and 3D Cultures” (Cells, 2023):
Where two headings read alike, the source gives them in different places. Marks after values point to notes of the source that are not given here.

Assays:
[1] = tested on: hiPSC-derived neurons co-cultured with human primary astrocytes in 2D; experiment: Ca2+ transient oscillation assay (FDSS), 2D co-culture; assay type: cell-based; conditions: for activation at 0.37 µM / activation at 1.11 µM / activation at 3.33 µM / activation at 10 µM: Homo sapiens, 1 h
Excerpt: (§1) In this study, we used cryopreserved excitatory neurons that were differentiated from human induced pluripotent stem cells (hiPSCs; Cat #: EX-SeV-CW50065) (Elixirgen Scientific, Inc., Baltimore, MD, USA). The hiPSCs used, namely, CW50065 were derived from a healthy person and distributed by the California Institute of Regenerative Medicine Human Induced Pluripotent Stem Cell Repository. Human iPSC-derived excitatory neurons were differentiated from CW50065 using a proprietary cocktail of differentiation-inducing factors called Quick-Neuron™ EX-SeV (Batch number: EX-SeV-CW50065-L; Elixirgen Scientific, Inc.), cryopreserved 3 days after differentiation induction and distributed. Human iPSC-derived excitatory neurons were recovered from cryopreservation and maintained essentially as instructed by the manufacturer.
(§2) Cryopreserved human primary astrocytes (#N7805100, Thermo Fisher Scientific, Waltham, MA, USA) were recovered as instructed by the manufacturer and seeded in a 10 cm dish at the density of 2,000,000 cells. The culture was maintained using the Human Astrocytes Kit (#N7805200, Thermo Fisher Scientific) for 12 days. Half of the culture medium was replaced with fresh medium every 2–3 days during the culture period. These astrocytes were harvested using StemPro™ Accutase™ Cell Dissociation Reagent (#A1110501, Thermo Fisher Scientific) when they reached confluency. These cells were cryopreserved in STEM-CELLBANKER® GMP grade (ZENOGEN PHARMA, Kohriyama, Fukushima Japan) at the density of 2,000,000 cells per vial as working stocks for co-culture with neurons in 2D and 3D conditions described below. After a working stock was recovered, astrocytes were directly mixed with hiPSC-derived neurons for plating without further expansion.
Live neurons (hiPSC neurons) and human primary astrocytes were recovered from cryopreservation as described above and seeded in each well of 384-well plates at the density of 10,000 cells (HiPSC-cortical neurons) and human primary astrocytes at 2500 cells (ratio 4:1). These co-cultures were maintained under the medium conditions recommended by the manufacturer, namely Medium N(G2P), to complete the differentiation of excitatory neurons for the first week. […] Half of the culture medium was replaced with fresh medium every 3–4 days during the culture period.
After the incubation, the culture medium containing Cal-520 was replaced with 50 μL of HBSS supplemented with 0.1 mM MgCl2, 2 mM CaCl2, 10 mM HEPES, and 10 mM glucose and incubated at 37 ℃ for 15 min.
(§3) Prior to the fluorescence measurements, all wells to be measured were treated with 0.04% dimethyl sulfoxide (DMSO) to stabilize the oscillation signal. The first recording started 10 min after the addition of DMSO for each plate for 20 min. The effects of the test compound were recorded again starting 60 min after the administration of compounds, for 20 min.
Twenty-five compounds (Table 1) were first dissolved in either DMSO (most compounds) or distilled water depending on the compound, and further diluted with PBS to produce stock solutions concentrated 10-fold. […] The final concentration of DMSO was adjusted to 0.1%. Changes in the fluorescence intensity (FI) produced by Ca^2+ flux were measured at 37 °C for all wells of a 384-well plate simultaneously using the FDSS/µCell system (#C13299, Hamamatsu Photonics, Hamamatsu, Shizuoka, Japan). The excitation and the emission wavelengths were 470 nm and 540 nm, respectively. The recording duration was 20 min with a sampling frequency of 2 Hz for cells cultured under 2D conditions and 10 Hz for cells cultured under 3D conditions.

[2] = tested on: hiPSC-derived neurons co-cultured with human primary astrocytes in 3D; experiment: Ca2+ transient oscillation assay (FDSS), 3D spheroids; assay type: cell-based; conditions: for Area under the curve - 3D Mean / Peak Number—3D Mean / Peak width - 3D Mean / Peak-to-peak interval - 3D Mean: 60 min
Excerpt: as §1, §2
We used U-shaped-bottom 96-well plates (#174925, Thermo Fisher Scientific) without any prior coating to make a spheroid in each well. Neurons and astrocytes were seeded and maintained as described for 2D cultures, except for the following modifications. First, neurons and astrocytes were seeded in each well of the 96-well plates at the density of 8000 hiPSC neurons with 8000 human primary astrocytes (8000)/well (ratio 1:1). Second, when the differentiation of excitatory neurons was completed one week after seeding, cells were fed with BrainPhys^TM Neuronal Medium (#05793, […] Technologies, Vancouver, BC, Canada) supplemented with 2% SM1 Neuronal Supplement, 1% N2 Supplement-A, and 10% Neuron culture medium for 5 weeks.
Cells maintained as spheroids (3D) in the U-shaped-bottom 96-well plates were transferred into 384-well spheroid plates (#4516, Merck, Corning, NY, USA) with 25 µL of the culture medium. A Ca^2+-indicating dye solution including […] was prepared using the EarlyTox™ Cardiotoxicity Kit (#R8211, Molecular Devices, LLC, San Jose, CA, USA) according to the manufacturer. Then, the same volume of the dye solution was dispensed into each well.
as §3
Twenty-five compounds (Table 1) were first dissolved in either DMSO (most compounds) or distilled water depending on the compound, and further diluted with PBS to produce stock solutions concentrated 10-fold. Then, 5 μL of each compound solution was injected into each well using an automatic pipetting robot (#4505, ASSIST PLUS pipetting robot, Integra Biosciences Corp., Hudson, NH, USA), so that the final concentration of each compound was 1-fold nominal in the well.

[3] = read-out: Area under the curve - 2D Mean
[4] = read-out: Peak amplitude - 2D Mean
[5] = read-out: Peak-to-peak interval - 2D Mean
[6] = symbol, based on % changes of baseline value in the peak number, concentration in parentheses in same cell

| SMILES | activation at 0.37 µM [1, 3] [%] | activation at 1.11 µM [1, 3] [%] | activation at 3.33 µM [1, 3] [%] | activation at 10 µM [1, 3] [%] | activation at 0.37 µM ([1]; read-out: Peak Number—2D Mean) [%] | activation at 1.11 µM ([1]; read-out: Peak Number—2D Mean) [%] | activation at 3.33 µM ([1]; read-out: Peak Number—2D Mean) [%] | activation at 10 µM ([1]; read-out: Peak Number—2D Mean) [%] | activation at 0.37 µM [1, 4] [%] | activation at 1.11 µM [1, 4] [%] | activation at 3.33 µM [1, 4] [%] | activation at 10 µM [1, 4] [%] | activation at 0.37 µM ([1]; read-out: Peak width - 2D Mean) [%] | activation at 1.11 µM ([1]; read-out: Peak width - 2D Mean) [%] | activation at 3.33 µM ([1]; read-out: Peak width - 2D Mean) [%] | activation at 10 µM ([1]; read-out: Peak width - 2D Mean) [%] | activation at 0.37 µM [1, 5] [%] | activation at 1.11 µM [1, 5] [%] | activation at 3.33 µM [1, 5] [%] | activation at 10 µM [1, 5] [%] | further results |
| --- | --- | --- | --- | --- | --- | --- | --- | --- | --- | --- | --- | --- | --- | --- | --- | --- | --- | --- | --- | --- | --- |
| C=C(C)[C@H]1CN[C@H](C(=O)O)[C@H]1CC(=O)O [Kainic Acid] | 32.3 | 25.2 | -48.2 | -100 | 21 | 26.8 | -53.3 | -100 | 11.8 | -2.2 | -55 | -100 | 22 | 37.4 | -23 | -100 | -1.2 | -19.6 | -53 | -100 | response of positive controls on Ca2+ transient oscillations ([1]; 2D, 4-AP 30 µM, kainic acid 100 µM): significant responses; change of Ca2+ neuronal oscillations (Figure 1) ([1]; 4-AP at 30 µM, kainic acid at 10 µM): inhibition; Area under the curve - 3D Mean ([2]; 0.37 µM): 120.5 % change from baseline; Peak Number—3D Mean ([2]; 0.37 µM): 1.3 % change from baseline; Peak width - 3D Mean ([2]; 0.37 µM): 4.9 % change from baseline; Peak-to-peak interval - 3D Mean ([2]; 0.37 µM): 0.2 % change from baseline; Area under the curve - 3D Mean ([2]; 1.11 µM): 141.9 % change from baseline; Peak Number—3D Mean ([2]; 1.11 µM): 16.4 % change from baseline; Peak width - 3D Mean ([2]; 1.11 µM): 10.6 % change from baseline; Peak-to-peak interval - 3D Mean ([2]; 1.11 µM): −16.0 % change from baseline; Area under the curve - 3D Mean ([2]; 3.33 µM): 174.3 % change from baseline; Peak Number—3D Mean ([2]; 3.33 µM): 18.7 * % change from baseline; Peak width - 3D Mean ([2]; 3.33 µM): 41.9 % change from baseline; Peak-to-peak interval - 3D Mean ([2]; 3.33 µM): −13.0 % change from baseline; Area under the curve - 3D Mean ([2]; 10 µM): 58.3 % change from baseline; Peak Number—3D Mean ([2]; 10 µM): 102.8 ** % change from baseline; Peak width - 3D Mean ([2]; 10 µM): −20.1 % change from baseline; Peak-to-peak interval - 3D Mean ([2]; 10 µM): −45.2 % change from baseline; response of positive controls on Ca2+ transient oscillations ([2]; 3D, 4-AP 30 µM, kainic acid 100 µM): significant responses |
| CN1CCc2cc3c(cc2[C@H]1[C@@H]1OC(=O)c2c1ccc1c2OCO1)OCO3 [Bicuculline] | 15.8 | 39.6 | 1.6 | 22.8 | -29.4 | -3.5 | 9.9 | 5.8 | -4.1 | 9.3 | -14.1 | 9.8 | 16.1 | 33 | 3.7 | 11.5 | -17.2 | 8.2 | -26.1 | -13.2 | effect on peak number / Ca2+ neuronal oscillations, in words ([1]; 2D format): significantly reduced peak number; Ca²⁺ Transient Peak Number (2D) [1, 6]: ±; Area under the curve - 3D Mean ([2]; 0.37 µM): 105.2 % change from baseline; Peak Number—3D Mean ([2]; 0.37 µM): −14.9 % change from baseline; Peak width - 3D Mean ([2]; 0.37 µM): −0.3 % change from baseline; Peak-to-peak interval - 3D Mean ([2]; 0.37 µM): 7.6 % change from baseline; Area under the curve - 3D Mean ([2]; 1.11 µM): 108.3 % change from baseline; Peak Number—3D Mean ([2]; 1.11 µM): −13.0 % change from baseline; Peak width - 3D Mean ([2]; 1.11 µM): 5.7 % change from baseline; Peak-to-peak interval - 3D Mean ([2]; 1.11 µM): 20.3 % change from baseline; Area under the curve - 3D Mean ([2]; 3.33 µM): 107.4 % change from baseline; Peak Number—3D Mean ([2]; 3.33 µM): 5.8 % change from baseline; Peak width - 3D Mean ([2]; 3.33 µM): 2.7 % change from baseline; Peak-to-peak interval - 3D Mean ([2]; 3.33 µM): 12.1 % change from baseline; Area under the curve - 3D Mean ([2]; 10 µM): 115.2 % change from baseline; Peak Number—3D Mean ([2]; 10 µM): −5.8 % change from baseline; Peak width - 3D Mean ([2]; 10 µM): 8.5 % change from baseline; Peak-to-peak interval - 3D Mean ([2]; 10 µM): 9.4 % change from baseline; effect on peak number of oscillations, in words ([2]; 3D-cultured): did not significantly change the peak number; Ca²⁺ Transient Peak Number (3D) [2, 6]: ± |
